{
  "source": "patent US20210059977A1",
  "about": "“COMBINATION THERAPIES FOR THE TREATMENT OF AMYOTROPHIC LATERAL SCLEROSIS AND RELATED DISORDERS” (The General Hospital Corporation, priority 2018, published 2021)",
  "type_in_all_cases": "in vivo, mice",
  "key": {"SOD1^G93A mouse model [1]": {"test_system": "SOD1^G93A mouse model", "assay": "Age at paresis onset", "method": "Beginning at P50, weight and neurological score (using the ALS TDI criteria) (Hatzipetros, T., et al. (2015). “A Quick Phenotypic Neurological Scoring System for Evaluating Disease Progression in the SOD1-G93A Mouse Model of ALS.” J Vis Exp(104); Leitner M., et. al. (2009). “Working with ALS mice: Guidelines for preclinical testing & colony management.” The Jackson Laboratory) were recorded for each mouse every 5 days until death or euthanasia. ALS TDI criteria are as follows: • Score of 0: Full extension of hind legs away from lateral midline when mouse is suspended by its tail, and mouse can hold this for two seconds, suspended two to three times. • Score of 1: Collapse or partial collapse of leg extension towards lateral midline (weakness) or trembling of hind legs during tail suspension. • Score of 2: Toes curl under at least twice during walking of 12 inches, or any part of foot is dragging along cage bottom/table. • Score of 3: Rigid paralysis or minimal joint movement, foot not being used for generating forward motion. • Score of 4: Mouse cannot right itself within 15 seconds after being placed on either side. *Mice were euthanized upon obtaining a score of 4.\n(§1) 149 male and female age- and litter-matched transgenic (Tg) SOD1^G93A and wild-type (Wt) SOD1^G93A mice were used with the following breakdown: Females (19 WtSOD1-Vehicle, 17 WtSOD1-Cromolyn, 19 TgSOD1-Vehicle, and 17 TgSOD1-Cromolyn) and Males (18 WtSOD1-Vehicle, 21 WtSOD1-Cromolyn, 21 TgSOD1-Vehicle, 17 TgSOD1-Cromolyn)."}, "SOD1^G93A mouse model [2]": {"test_system": "SOD1^G93A mouse model", "assay": "Survival", "settings": "Mantel-Cox test", "method": "149 mice were used in this study. All animal care, husbandry and experimentation were performed according to the guidelines set by the Massachusetts General Hospital Subcommittee on Research Animal Care. These experiments were approved by the Massachusetts General Hospital Institutional Animal Care and Use Committee (2014N000018). All mice were given access to food and water ad libitum. Mice were assessed regularly for motor impairment and euthanized upon onset of major paralysis (neurological scoring=4, see Neurological Score below) to minimize suffering as described previously. […] The endpoint used in this study was based on previously reported criteria by ALS TDI, the loss of self-righting ability within 15 seconds (neurological score=4) or the inability to move to reach food on the cage floor. Mice that reached the humane endpoint were euthanized within 3 hours.\nas §1"}, "[3]": {"test_system": "Iba1-positive cell area in lumbar spinal cord", "assay": "Iba1 immunohistochemical analysis (microgliosis)", "settings": "TgSOD1-Cromolyn vs TgSOD1-Vehicle", "method": "Frozen spinal cord sections were fixed in 4% PFA/PBS for 72 hours and dehydrated with 30% sucrose in PBS. Sections were washed three times (5 minutes each) with PBS and incubated with 3% H2O2 in PBS for 15 minutes to quench endogenous peroxidases. Sections were subsequently washed three times with PBS and blocked using 5% (v/v) normal goat serum (Vector Laboratories), 0.3% Triton X-100 in PBS. Primary antibody against Iba1 (rabbit polyclonal, 1:400, Wako, #019-19741) was diluted in a buffer containing 2.5% (v/v) normal goat serum, 0.3% Triton X-100 and incubated overnight at 4° C. On the following day, samples were washed three times (10 minutes each) with PBS. The primary antibody was detected using a biotinylated secondary antibody (1:200) and VECTASTAIN Elite ABC HRP kit (Vector Laboratories), and developed with DAB (Vector Laboratories), following the provider's instructions. Sections were dehydrated in a series of graded ethanol, cleared in xylene, and cover-slipped with Cytoseal-XYL xylene-based mounting medium (Thermo Fisher Scientific). Sections were imaged using a light microscope (TE360 Eclipse; Nikon, Japan) at 10× magnification. The Iba1-positive cell area (area occupied by Iba1-positive cells divided by the total area) was quantified for each spinal cord section using ImageJ software (Voxel counter plugin, NIH, USA). Two to three sections were analyzed per mouse. […]"}, "[4]": {"test_system": "pro-inflammatory cytokines and chemokines in plasma", "assay": "Meso Scale Discovery multi-spot cytokine assay, plasma", "method": "Spinal cord frozen tissue was homogenized in ice-cold RIPA buffer (Thermo Fisher Scientific, #8990) supplemented with protease inhibitor cocktail (Thermo Fisher Scientific, #78430). Samples were centrifuged at 45,000 g for 30 minutes at 4° C. using an Optima TL ultracentrifuge and a TLA 120.2 rotor (Beckman Coulter). Expression levels of 10 pro-inflammatory cytokines and chemokines were assessed in the supernatants derived from spinal cord tissue or in the plasma, using an electrochemiluminescence-based multi-array method and MESO Quickplex SQ 120 system (MSD, Rockville, Md., USA). The 96-well V-PLEX Proinflammatory Mouse 1 Kit (Meso Scale Discovery, #K15048D) was used to measure simultaneously IFN-γ, IL-1β, IL-2, IL-4, IL-5, IL-6, CXCL1/KC/GRO, IL-10, IL-12, p70, and TNFα, following the manufacturer's instructions. Briefly, samples were diluted in the calibrator and added to the plate coated with an array of cytokine capture antibodies. Samples were incubated in the plate for 2 hours with shaking at room temperature, followed by washes with the wash buffer provided in the kit. The detection antibody solution was added to each well and the plate was incubated for 2 hours. The plate was washed with the wash buffer and the 2× Read Buffer T was added. The signal was immediately measured on a MESO QuickPlex SQ 120 instrument and was analyzed using the DISCOVERY WORKBENCH 4.0 software (Meso Scale Diagnostics, LLC., Rockville, Md., USA). Protein concentrations in the supernatants or the plasma samples were measured using the Pierce BCA protein assay kit (Thermo Scientific). Values in the graphs represent levels of cytokines normalized to the corresponding protein concentrations. […] Females (19 WtSOD1-Vehicle, 17 WtSOD1-Cromolyn, 19 TgSOD1-Vehicle, and 17 TgSOD1-Cromolyn) and Males (18 WtSOD1-Vehicle, 21 WtSOD1-Cromolyn, 21 TgSOD1-Vehicle, 17 TgSOD1-Cromolyn). […] The same pro-inflammatory panel from Meso Scale Discovery was used to assess the levels of cytokines and chemokines in the plasma of a subset of mice (Females: 13 WtSOD1-Vehicle, 15 WtSOD1-Cromolyn, 6 TgSOD1-Vehicle, and 6 TgSOD1-Cromolyn; and Males: 14 WtSOD1-Vehicle, 10 WtSOD1-Cromolyn, 6 TgSOD1-Vehicle, 3 TgSOD1-Cromolyn). We were able to measure 7 of the 10 pro-inflammatory cytokines in plasma which included IL-1β, IL-2, IL-5, IL-6, CXCL1, IL-10, and TNFα."}},
  "data": [
    {"smiles": "O=C(O)c1cc(=O)c2c(OCC(O)COc3cccc4oc(C(=O)O)cc(=O)c34)cccc2o1", "note": "[cromolyn, cromolyn sodium]", "values": [
      {"measurement": "median age of onset (age at paresis onset)", "setting": "SOD1^G93A mouse model [1]; TgSOD1-Cromolyn group, all mice, 6.3 mg/kg i.p., vehicle group 99 days", "value": 107, "unit": "days"},
      {"measurement": "onset of motor symptoms as measured by age at paresis onset", "setting": "SOD1^G93A mouse model [1]; all TgSOD1 mice, Mantel-Cox test, p<0.0001", "value": "significant effect of cromolyn treatment on the onset of motor symptoms"},
      {"measurement": "onset of motor symptoms", "setting": "SOD1^G93A mouse model [1]; female mice, Mantel-Cox test, p=0.0009", "value": "significant delay in the onset of motor symptoms"},
      {"measurement": "onset of motor symptoms", "setting": "SOD1^G93A mouse model [1]; male mice, Mantel-Cox test, p=0.0193", "value": "significant delay in the onset of motor symptoms"},
      {"measurement": "survival", "setting": "SOD1^G93A mouse model [2]; all treated mice, p=0.1096", "value": "did not have a significant effect on survival"},
      {"measurement": "survival", "setting": "SOD1^G93A mouse model [2]; female mice, p=0.01", "value": "significant effect of treatment on female survival"},
      {"measurement": "survival", "setting": "SOD1^G93A mouse model [2]; male mice alone, p<0.8831", "value": "did not have a significant effect on survival"},
      {"measurement": "percentage of Iba1-positive cell area in the lumbar spinal cord", "setting": "[3]", "value": "no significant change"},
      {"measurement": "IL-10 levels in plasma", "setting": "[4]; TgSOD1-Cromolyn vs TgSOD1-Vehicle, p=0.0095", "value": "significantly decreased"},
      {"measurement": "IL-2 levels in plasma", "setting": "[4]; TgSOD1-Cromolyn vs TgSOD1-Vehicle, p=0.0211", "value": "significantly decreased"},
      {"measurement": "IL-6 levels in plasma", "setting": "[4]; TgSOD1-Cromolyn vs TgSOD1-Vehicle, p=0.0273", "value": "significantly decreased"},
      {"measurement": "TNFα levels in plasma", "setting": "[4]; TgSOD1-Cromolyn vs TgSOD1-Vehicle, p=0.110", "value": "trend towards a decrease"},
      {"measurement": "IL-1β levels in plasma", "setting": "[4]; between groups", "value": "no statistically significant difference"},
      {"measurement": "IL-5 levels in plasma", "setting": "[4]; between groups", "value": "no statistically significant difference"}
    ]}
  ]
}
